Reference: ChEMBL document CHEMBL1145311 (Bioorg Med Chem Lett, 2006)

Target: T1, Dihydrofolate reductase (Pneumocystis carinii, UniProt P16184)
T1 sequence (P16184 whole entry): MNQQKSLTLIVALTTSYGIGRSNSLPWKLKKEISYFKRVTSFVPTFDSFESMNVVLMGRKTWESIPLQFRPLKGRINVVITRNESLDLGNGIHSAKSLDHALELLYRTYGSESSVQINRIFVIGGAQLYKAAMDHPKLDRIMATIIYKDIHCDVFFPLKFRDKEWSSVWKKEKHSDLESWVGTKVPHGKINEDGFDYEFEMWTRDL
Description: Inhibition of Pneumocystis carinii DHFR

Nc1nc(N)c2nc(CN3c4ccccc4CCc4ccccc43)cnc2n1
IC50: 210 nM
